Tests used:
AC1 = AC1 (Homo sapiens, UniProt Q08828); experiment: Adenylyl cyclase cAMP accumulation assay, HEK-ACA3/6 cells overexpressing human AC1; format: cell-based; set-up: expressed in transfected cells; host or cells: HEK-ACA3/6 cells (so in the source) overexpressing human AC1; conditions: Table 2; 3 μM A23187 + 0.5 mM IBMX, HTRF cAMP; read-out: AC1 IC50 (μM) ± SEM
Description: Cryopreserved HEK-ACA3/6 cells overexpressing human AC1, AC2, AC5, or AC8 were transferred to a 15 mL Falcon tube and gently resuspended in prewarmed Opti-MEM.50 The cells were centrifuged for 5 min at 150 g, the supernatant was discarded, and the cell pellet was resuspended in 10 mL for a second centrifugation step. Then, the cells were counted, plated in a white opaque 384-well plate, and incubated for 1 h in a 37° C. incubator supplemented with 5% CO2. The hit compounds' working solutions were prepared in prewarmed Opti-MEM, and successive serial dilutions were prepared using a Precision 2000 automated pipetting system. Dose*-response curves were generated for each hit compound using a threefold serial dilution starting at 30 μM concentration (at least 6-points per curve). Compounds were added to the assay plates and incubated for 30 min at room temperature. AC activity was selectively stimulated on each AC isoform with 3 μM A23187 (AC1 and AC8), 100 nM PMA (AC2), or a low concentration (1 μM) of the AC activator, forskolin (AC5). All stimulants of AC activity were added in combination with IBMX at a final concentration of 0.5 mM. After 1 h incubation with the stimulant at room temperature, cAMP accumulation was detected using the fluorescence-based Cisbio HTRF cAMP detection kit. […] Percent inhibition at the highest concentration was used to determine max % inhibition (Max AC8% Inhibition). […]

AC8 = AC8 (Homo sapiens, UniProt P40145); experiment: Adenylyl cyclase cAMP accumulation assay, HEK-ACA3/6 cells overexpressing human AC8; format: cell-based; set-up: expressed in transfected cells; host or cells: HEK-ACA3/6 cells (so in the source) overexpressing human AC8; conditions: Table 2; for IC50: 3 μM A23187 + 0.5 mM IBMX, HTRF cAMP, read-out: AC8 IC50 (μM) ± SEM; for inhibition at up to 30 µM: percent inhibition at the highest concentration (dilution starting at 30 μM), read-out: Max AC8 % inhibition
Description: Cryopreserved HEK-ACA3/6 cells overexpressing human AC1, AC2, AC5, or AC8 were transferred to a 15 mL Falcon tube and gently resuspended in prewarmed Opti-MEM.50 The cells were centrifuged for 5 min at 150 g, the supernatant was discarded, and the cell pellet was resuspended in 10 mL for a second centrifugation step. Then, the cells were counted, plated in a white opaque 384-well plate, and incubated for 1 h in a 37° C. incubator supplemented with 5% CO2. The hit compounds' working solutions were prepared in prewarmed Opti-MEM, and successive serial dilutions were prepared using a Precision 2000 automated pipetting system. Dose*-response curves were generated for each hit compound using a threefold serial dilution starting at 30 μM concentration (at least 6-points per curve). Compounds were added to the assay plates and incubated for 30 min at room temperature. AC activity was selectively stimulated on each AC isoform with 3 μM A23187 (AC1 and AC8), 100 nM PMA (AC2), or a low concentration (1 μM) of the AC activator, forskolin (AC5). All stimulants of AC activity were added in combination with IBMX at a final concentration of 0.5 mM. After 1 h incubation with the stimulant at room temperature, cAMP accumulation was detected using the fluorescence-based Cisbio HTRF cAMP detection kit. […] Percent inhibition at the highest concentration was used to determine max % inhibition (Max AC8% Inhibition).
The Max AC8 inhibition is a description of the maximum efficacy of molecules against AC8.

Sequence of AC1 (Q08828 whole entry): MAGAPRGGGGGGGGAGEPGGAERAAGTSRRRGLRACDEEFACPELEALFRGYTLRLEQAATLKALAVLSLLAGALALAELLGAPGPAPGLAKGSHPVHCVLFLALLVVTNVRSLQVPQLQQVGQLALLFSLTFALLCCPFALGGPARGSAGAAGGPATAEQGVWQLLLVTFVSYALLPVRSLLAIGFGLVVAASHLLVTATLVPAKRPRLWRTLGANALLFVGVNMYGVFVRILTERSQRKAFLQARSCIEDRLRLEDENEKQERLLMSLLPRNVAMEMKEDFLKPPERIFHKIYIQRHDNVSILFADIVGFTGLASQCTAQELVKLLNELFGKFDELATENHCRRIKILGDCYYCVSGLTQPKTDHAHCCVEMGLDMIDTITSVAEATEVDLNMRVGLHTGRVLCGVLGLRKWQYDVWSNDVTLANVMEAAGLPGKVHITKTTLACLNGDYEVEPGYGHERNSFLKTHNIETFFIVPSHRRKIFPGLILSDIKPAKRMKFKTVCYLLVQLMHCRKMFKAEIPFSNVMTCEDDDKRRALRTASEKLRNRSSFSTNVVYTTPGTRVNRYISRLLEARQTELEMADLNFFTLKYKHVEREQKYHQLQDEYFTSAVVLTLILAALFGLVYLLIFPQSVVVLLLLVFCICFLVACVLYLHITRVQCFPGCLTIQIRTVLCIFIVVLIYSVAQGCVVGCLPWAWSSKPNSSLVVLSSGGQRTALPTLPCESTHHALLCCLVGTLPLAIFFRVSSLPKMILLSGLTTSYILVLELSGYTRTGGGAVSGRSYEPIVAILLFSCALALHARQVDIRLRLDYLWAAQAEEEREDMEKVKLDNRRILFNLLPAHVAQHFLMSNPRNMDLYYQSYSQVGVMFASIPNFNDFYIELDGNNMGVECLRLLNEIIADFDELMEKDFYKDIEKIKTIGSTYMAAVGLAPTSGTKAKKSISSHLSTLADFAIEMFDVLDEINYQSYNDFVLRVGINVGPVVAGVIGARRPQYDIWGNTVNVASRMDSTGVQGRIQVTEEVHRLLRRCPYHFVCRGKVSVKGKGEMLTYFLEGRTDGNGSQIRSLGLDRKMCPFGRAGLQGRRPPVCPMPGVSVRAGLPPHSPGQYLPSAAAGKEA
Sequence of AC8 (P40145 whole entry): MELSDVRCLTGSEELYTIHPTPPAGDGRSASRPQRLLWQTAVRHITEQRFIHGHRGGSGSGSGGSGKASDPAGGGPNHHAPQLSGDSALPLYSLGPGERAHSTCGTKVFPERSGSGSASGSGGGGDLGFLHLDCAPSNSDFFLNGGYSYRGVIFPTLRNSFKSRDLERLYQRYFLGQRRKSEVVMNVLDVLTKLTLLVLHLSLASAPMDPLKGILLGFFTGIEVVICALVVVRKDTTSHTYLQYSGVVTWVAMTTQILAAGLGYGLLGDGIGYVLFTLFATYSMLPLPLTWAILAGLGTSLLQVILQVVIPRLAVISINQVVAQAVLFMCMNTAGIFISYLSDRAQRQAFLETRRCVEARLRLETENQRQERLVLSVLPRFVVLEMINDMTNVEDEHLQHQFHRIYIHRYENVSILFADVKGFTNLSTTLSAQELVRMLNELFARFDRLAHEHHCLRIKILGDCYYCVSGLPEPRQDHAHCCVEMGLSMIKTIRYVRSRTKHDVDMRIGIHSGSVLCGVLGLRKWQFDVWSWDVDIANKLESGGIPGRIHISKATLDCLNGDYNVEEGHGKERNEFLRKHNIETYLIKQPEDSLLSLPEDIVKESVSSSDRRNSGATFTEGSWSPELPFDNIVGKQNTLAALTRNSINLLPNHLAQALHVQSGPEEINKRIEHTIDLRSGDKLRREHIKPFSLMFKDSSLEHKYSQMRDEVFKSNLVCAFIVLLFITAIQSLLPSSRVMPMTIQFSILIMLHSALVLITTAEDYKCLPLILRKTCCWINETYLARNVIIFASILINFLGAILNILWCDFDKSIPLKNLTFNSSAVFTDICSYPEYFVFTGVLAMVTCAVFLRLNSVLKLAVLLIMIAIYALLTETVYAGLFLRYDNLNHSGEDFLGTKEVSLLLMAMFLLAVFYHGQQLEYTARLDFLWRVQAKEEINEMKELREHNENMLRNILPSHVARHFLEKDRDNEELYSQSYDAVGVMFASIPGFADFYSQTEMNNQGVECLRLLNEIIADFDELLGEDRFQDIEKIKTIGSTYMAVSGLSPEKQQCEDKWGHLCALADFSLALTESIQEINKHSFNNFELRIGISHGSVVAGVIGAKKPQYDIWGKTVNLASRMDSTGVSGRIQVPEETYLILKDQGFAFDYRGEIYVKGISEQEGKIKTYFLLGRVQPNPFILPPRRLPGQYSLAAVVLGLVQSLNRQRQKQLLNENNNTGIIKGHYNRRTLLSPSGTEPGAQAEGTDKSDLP

Compound | IC50 (AC1) [µM] | IC50 (AC8) [µM] | inhibition at up to 30 µM (AC8) [%]
Cc1cc(NCc2ccc(Cl)cc2)n(-c2nc3c(c(=O)[nH]2)CCC3)n1 [AC10110A] | 7.49 ± 2.9 | 58.9 ± 36.1 | 48
CCc1cc(=O)[nH]c(-n2nc(-c3ccccc3)cc2NCc2ccc(OC)cc2)n1 [AC10112A] | 0.86 ± 0.07 | 45.3 ± 14.1 | 37
Cc1cc(NCc2ccc(Cl)cc2)n(-c2ccccc2)n1 [AC10113A] | 15.5 ± 8.63 | > 60 | 19
Cc1cccc(CNc2cc(C)nn2-c2nc3c(c(=O)[nH]2)CCC3)c1 [AC10115A] | 0.75 ± 0.39 | 10.8 ± 4.61 | 82
Cc1cccc(CNc2cc(C)nn2-c2nccc(=O)[nH]2)c1 [AC10116A] | 2.63 ± 0.51 | 8.23 ± 4.05 | 83

Other lines, results leading:

IC50 (AC1) [µM] | IC50 (AC8) [µM] | inhibition at up to 30 µM (AC8) [%] | Compound
0.36 ± 0.12 | 31.8 ± 19.3 | 35 | Cc1cc(=O)[nH]c(-n2nc(C)cc2NCc2ccc(Cl)cc2)n1 [AC10111A]
0.63 ± 0.22 | > 60 | 33 | Cc1cccc(CNc2cc(C)nn2-c2nc(C)cc(=O)[nH]2)c1 [AC10114A]
1.07 ± 0.07 | > 60 | 23 | CCc1cc(=O)[nH]c(-n2nc(C)cc2NCc2ccco2)n1 [AC10139A]
0.39 ± 0.02 | > 60 | 4 | CCc1cc(=O)[nH]c(-n2nc(C)cc2NCc2cccs2)n1 [AC10140A]
0.26 ± 0.03 | 2.01 ± 0.09 | 84 | CCc1cc(=O)[nH]c(-n2nc(C)cc2NCc2ccc(C(=O)c3ccccc3)cc2)n1 [AC10144A]
